Experimental data: patent US20040127569A1, “Methods for treatment and prevention of gastrointestinal conditions” (priority 2002, published 2004)
Structures can show the parent of a compound that is named as a salt. Where two headings read alike, the source gives them in different places.

Legend:
hiNOS = target: T1, hiNOS (Homo sapiens, UniProt P35228); assay: Assay for time dependent inhibition, hiNOS; format: biochemical; conditions: 60 min preincubation
T1 construct: made in house; host or cells: Sf9 insect cells (baculovirus vector)
Procedure: Assay for Time Dependent Inhibition
Aliquots (10 μL) are removed at 0, 10, 21 and 60 minutes and immediately added to a citrulline assay enzyme reaction mixture containing L-[2,3-^3H]-arginine and a final L-arginine concentration of 30 μM in a final volume of 100 μL. The reaction is allowed to proceed for 15 minutes at 37° C. and terminated by addition of stop buffer and chromatography with Dowex 50W X-8 cation exchange ion exchange resin as described for the citrulline NOS assay. The % inhibition of NOS activity by an inhibitor was taken as the percent inhibition in activity compared to control enzyme preincubated for the same time in the absence of inhibitor.

Human Cartilage = assay: Human cartilage explant assay (nitrite production, IL-1β induced); format: cell-based; conditions: inhibition of nitrite production, IL-1β stimulated explants
Procedure: Human Cartilage Explant Assay
Bone pieces are rinsed twice with Dulbecco's Phosphate Buffered Saline (GibcoBRL) and once with Dulbecco's Modified Eagles Medium (GibcoBRL) and placed into a petri dish with phenol red free Minimum Essential Medium (MEM) (GibcoBRL). Cartilage was cut into small explants of approximately 15-45 mg in weight and one or two explants per well are placed into either 96 or 48 well culture plates with 200-500 μL of culture media per well. The culture media was either a custom modification of Minimum Essential Medium(Eagle) with Earle's salts (GibcoBRL) prepared without L-Arginine, without L-Glutamine and without phenol red or a custom modification of serumless Neuman and Tytell (GibcoBRL) medium prepared without L-arginine, without insulin, without ascorbic acid, without L-glutamine and without phenol red. Both are supplemented before use with 100 μM L-Arginine (Sigma), 2 mM L-glutamine, 1×HL-1 supplement (BioWhittaker), […] ascorbic acid (Sigma) and 150 pg/ml recombinant human IL-1β (RD Systems) to induce nitric oxide synthase. Compounds are then added in 10 μL aliquots and the explants incubated at 37° C. with 5% CO2 for 18-24 hours. The day old supernatant is then discarded and replaced with fresh culture media containing recombinant human IL-1β and compound and incubated for another 20-24 hours. […] All samples are done in quadruplicate. Unstimulated controls are cultured in media in the absence of recombinant human IL-1β. IC50 values (Table I) are determined from plotting the percent inhibition of nitrite production at six different concentrations of inhibitor.

[1] = test system: LPS-induced increase in plasma nitrite/nitrate levels; assay: In vivo assay: endotoxin-treated rats, plasma nitrite/nitrate; design: species or system rat; conditions: oral administration, plasma nitrite/nitrate 5 hours post-treatment
Procedure: Plasma nitrite/nitrate levels can be determined 5 hours post-treatment.

i-NOS = i-NOS (Homo sapiens, UniProt P35228); assay: i-NOS inhibition, comparison with NIL amides; format: biochemical
[2] = Rattus norvegicus, read-out: ED50

Sequence of i-NOS (P35228 whole entry): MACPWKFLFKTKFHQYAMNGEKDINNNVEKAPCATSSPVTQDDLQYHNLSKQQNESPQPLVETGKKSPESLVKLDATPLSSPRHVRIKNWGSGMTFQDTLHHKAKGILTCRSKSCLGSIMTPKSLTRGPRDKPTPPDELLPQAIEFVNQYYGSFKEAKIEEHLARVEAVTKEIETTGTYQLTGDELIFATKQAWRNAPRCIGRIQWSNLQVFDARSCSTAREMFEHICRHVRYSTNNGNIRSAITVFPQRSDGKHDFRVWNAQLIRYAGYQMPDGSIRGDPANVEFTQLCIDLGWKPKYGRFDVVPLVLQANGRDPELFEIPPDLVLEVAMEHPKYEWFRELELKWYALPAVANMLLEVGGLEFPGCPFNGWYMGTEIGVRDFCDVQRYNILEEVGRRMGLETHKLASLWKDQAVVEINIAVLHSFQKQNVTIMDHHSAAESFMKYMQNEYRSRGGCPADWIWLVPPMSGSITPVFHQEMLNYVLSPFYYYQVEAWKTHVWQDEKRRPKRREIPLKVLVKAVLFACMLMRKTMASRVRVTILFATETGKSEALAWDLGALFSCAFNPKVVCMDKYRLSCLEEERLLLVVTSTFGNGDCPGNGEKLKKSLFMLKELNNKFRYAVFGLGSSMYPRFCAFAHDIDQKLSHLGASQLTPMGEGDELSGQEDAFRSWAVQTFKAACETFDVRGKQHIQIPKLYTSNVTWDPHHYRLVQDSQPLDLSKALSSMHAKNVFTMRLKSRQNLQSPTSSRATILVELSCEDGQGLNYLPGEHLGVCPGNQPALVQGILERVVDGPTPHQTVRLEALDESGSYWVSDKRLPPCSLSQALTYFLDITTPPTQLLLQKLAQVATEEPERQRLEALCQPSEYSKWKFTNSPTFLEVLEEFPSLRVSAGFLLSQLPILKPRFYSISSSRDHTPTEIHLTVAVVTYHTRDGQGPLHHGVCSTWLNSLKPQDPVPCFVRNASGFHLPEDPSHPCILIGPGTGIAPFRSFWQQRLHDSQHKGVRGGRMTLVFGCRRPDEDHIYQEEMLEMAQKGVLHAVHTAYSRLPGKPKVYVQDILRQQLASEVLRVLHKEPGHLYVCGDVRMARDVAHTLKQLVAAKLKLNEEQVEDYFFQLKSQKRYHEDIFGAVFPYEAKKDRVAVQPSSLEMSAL

Molecule	IC50 (Human Cartilage; Homo sapiens)	ED50 [1, 2]	other results
N=C1CCCC[C@H](CCCC[C@H](N)C(=O)O)N1 [Example Z, (αS,2S)-α-aminohexahydro-7-imino-1H-azepine-2-hexanoic acid, trihydrate hydrochloride]	< 10000 nM		inhibition at 22 µM (hiNOS): 85%
CC(=N)NC/C(F)=C/CC[C@H](N)C(=O)O [Example D, (2S,5Z)-2-amino-6-fluoro-7-[(1-iminoethyl)amino]-5-heptenoic acid, trihydrochloride, dihydrate]	2500 nM	> 10 mg/kg	
N=C1CCCC[C@H](CCCC[C@H](N)C(=O)O)N1 [Example X, (αS,2S)-α-aminohexahydro-7-imino-1H-azepine-2-hexanoic acid, trihydrate hydrochloride]			IC50 (Human Cartilage): < 10000 nM
CC(=N)NC/C(F)=C\CC[C@H](N)C(=O)Nc1nnn[nH]1 [Example H, (2S,5E)-2-amino-6-fluoro-7-[(1-iminoethyl)amino]-N-(1H-tetrazol-5-yl) 5-heptenamide, dihydrochloride]		< 0.3 mg/kg	
2S-amino-6-[(1-iminoethyl)amino]-N-(1H-tetrazol-5-yl)hexanamide, hydrate, dihydrochloride [Example 1]			i-NOS selectivity relative to NIL amide or NIL dimethylamide (i-NOS; compared with NIL amide or NIL dimethylamide): more selective
Cl.N=C1CCCC[C@H](CCCC[C@@H](N)C(=O)O)N1.O.O.O [Example V, (αR,2S)-α-aminohexahydro-7-imino-1H-azepine-2-hexanoic acid, trihydrate hydrochloride]	< 10000 nM	< 3 mg/kg	
CC(=N)NC/C(F)=C\CC[C@](C)(N)C(=O)O.Cl.Cl [Example HH, (2S,5E)-2-amino-2-methyl-6-fluoro-7-[(1-iminoethyl)amino]-5-heptenoic acid, dihydrochloride]	400 nM	0.4 mg/kg	
CC(=N)NCCCC[C@H](N)C(=O)Nc1nnn[nH]1 [Example NN, 2S-amino-6-[(1-iminoethyl)amino]-N-(1H-tetrazol-5-yl)hexanamide, hydrate, dihydrochloride]			i-NOS inhibitor potency relative to NIL amide or NIL dimethylamide (i-NOS; compared with 2S-amino-6-[(1-iminoethyl)amino]hexanamide (NIL amide) or NIL dimethylamide): more potent
CC(=N)NC/C(F)=C\CC[C@H](N)C(=O)O [Example A, (2S,5E)-2-amino-6-fluoro-7-[(1-iminoethyl)amino]-5-heptenoic acid, dihydrochloride, monohydrate]	100 nM	< 0.1 mg/kg	ED50 ([1]; dihydrochloride, monohydrate): <0.1 mg/kg
COC[C@](N)(CSCCNC(C)=N)C(=O)O [Example J, 2-[[[2-[(1-Iminoethyl)amino]ethyl]thio]methyl]-O-methyl-D-serine, dihydrochloride]			IC50 (Human Cartilage): 8200 nM
CC(=N)NCC(F)=CCC[C@H](N)C(=O)O (mixture of isomers) [Example B, (2S,5E/Z)-2-amino-6-fluoro-7-[(1-iminoethyl)amino]-5-heptenoic acid, dihydrochloride]	200 nM		
Cl.N=C1CCCC[C@@H](CCCC[C@H](N)C(=O)O)N1.O.O.O [Example W, (αS,2R)-α-aminohexahydro-7-imino-1H-azepine-2-hexanoic acid, trihydrate hydrochloride]	> 30000 nM	> 10 mg/kg	
CC(=N)NC/C=C\CC[C@](C)(N)C(=O)O [Example LL, (2S,5Z)-7-acetimidoylamino-2-amino-2-methyl-hept-5-enoic acid]	800 nM	0.3 mg/kg	
CC(=NO)NC/C(F)=C\CC[C@H](N)C(=O)O [Example G, (2S,5E)-2-amino-6-fluoro-7-[(1-hydroximinoethyl)amino]-5-heptenoic acid]		< 0.1 mg/kg	melting point: 198 to 200 °C
